{"source": "patent US20050096370A1", "about": "“Method for inhibiting tumor angiogenesis and tumor growth” (Bizbiotech Co., Ltd., priority 2003, published 2005)", "key": {"VEGF": {"test_system": "VEGF", "experiment": "VEGF protein ELISA in Hep3B cell-conditioned medium", "assay_type": "cell-based, human", "settings": "Hep3B cells, hypoxic, 24 hours, versus untreated hypoxic cells (P<0.001)", "protocol": "FIG. 3 is a histogram showing the amount of VEGF protein. […] The VEGF concentrations were quantified by comparison with a series of VEGF standard samples included in the assay kit. VEGF level in each experiment was measured twice. Bars represent the mean of four separate experiments with the 95% confidence interval. * denotes statistical significance compared to control supernatants from cells cultured under normoxic conditions (P<0.001); # denotes statistical significance compared to control supernatants from cells cultured under hypoxic conditions (P<0.00 1).\nImmunoblotting was used to detect HIF-1 protein in cultured cells, as described (Chun et al., Biochem Pharmacol 2001 61:947-954). […] To quantify mRNAs for HIF-1α and HIF-1-regulated genes, we performed a highly sensitive, semi-quantitative reverse transcription-polymerase chain reaction (RT PCR), as described previously (Chun et al., J Cell Sci 2001 114:4051-4061). […] P-actin mRNA was measured as a PCR control. […] To assess whether the VEGF mRNA levels affected levels of VEGF protein secreted into the medium, we measured VEGF protein levels in Hep3B cell-conditioned medium. […] VEGF levels in the conditioned media were quantified by using the Quantikine human VEGF Immunoassay kit (R&D Systems, Minneapolis, Minn.) according to the manufacturer's recommended protocol. […]"}, "HIF-1α and VEGF": {"test_system": "HIF-1α and VEGF", "experiment": "HIF-1α and VEGF protein immunoblot of Hep3B xenograft tumor lysates", "assay_type": "in vivo, nude mice", "settings": "Hep3B xenografts, 30 μg/g daily i.p. 2 weeks", "protocol": "Male nude mice were injected subcutaneously in the flank with 5×10^6 viable Hep3B cells. […] After the last treatment, the mice were euthanized, the tumors removed and lysates prepared for immunoblotting.\nMale nude mice were injected subcutaneously in the flank with 5×10^6 viable Hep3B cells. […] After the last treatment, the mice were euthanized, the tumors removed and lysates prepared for immunoblotting. Tumor lysates from vehicle-treated mice (C) and from. […] The antigen-antibody-protein A complexes were washed extensively with the lysis buffer, the immunocomplexes were eluted by boiling for 3 minutes in a sample buffer containing 2% SDS and 10 mM dithiothreitol and subjected to SDS-PAGE, and then immunoblotted using a rat anti HIF-1α antibody developed previously (Chun et al., Biochem J 2002 362:71-79). β-actin protein was measured as an internal standard. VEGF in tumor tissue was detected using a mouse monoclonal anti-VEGF (SantaCruz Biotechnology Inc., Santa Cruz, Calif.) at a dilution of 1:1000, followed by incubation with a horseradish peroxidase-conjugated anti-mouse antiseruni (Zymed Laboratories Inc.)."}}, "data": [{"smiles": "OCc1ccc(-c2nn(Cc3ccccc3)c3ccccc23)o1", "note": "[YC-1, 3-(5′-hydroxymethyl-2′-furyl)-1-benzylindazole]", "values": [{"measurement": "VEGF protein level in medium", "setting": "VEGF", "result": "decreased in a dose-dependent manner"}, {"measurement": "level of HIF-1α protein expression in tumors versus vehicle", "setting": "HIF-1α and VEGF", "result": "markedly lower"}, {"measurement": "level of VEGF protein expression in tumors versus vehicle", "setting": "HIF-1α and VEGF", "result": "markedly lower"}]}]}
